Test results published in patent US11766470B2, “Manufacture, formulation and dosing of apraglutide” (VectivBio AG, priority 2020, dated 2023).
Square brackets hold non-standard residues; d marks the D form. Peptide text beside a SMILES is read from it. ξ: configuration not given here. Ile(3ξ) = CCC(C)[C@H](N)C(=O)O; Thr(3ξ) = CC(O)[C@H](N)C(=O)O; Nle = CCCC[C@H](N)C(=O)O

Experiments:
[1] = tested on: anti-apraglutide antibodies; experiment: Anti-apraglutide antibodies ELISA in serum, Phase 2 SBS-IF trial (Example 5); type: in vivo, human
Text: Blood samples for analysis of plasma concentration of apraglutide and fasting plasma L-citrulline, a marker of enterocyte mass, were collected at baseline, during first and second treatment injection, four days after first treatment injection and at the end of treatment.
A fully validated ELISA method was used for the detection of anti-apraglutide antibodies in serum, following a three-tiered assay approach. In the first tier, anti-apraglutide antibodies present in samples and controls bonded to apraglutide immobilized on a microtiter plate. The bound anti-apraglutide antibodies were then detected with protein A/G and protein L. A sample with a signal above the validated screening cut-point was considered potentially positive and was then tested in the second tier, the confirmatory assay. For this, samples were pre-treated with an excess of apraglutide prior to testing them in the assay described above. An inhibition of the signal equal to or greater than the validated confirmatory cut-point confirmed the presence of antibodies. Samples were then reported as anti-apraglutide antibody positive. Titers were then determined by serial dilution of all confirmed positive samples.

[2] = human, sc, 5 mg
Text: (§1) Plasma citrulline was used as a pharmacodynamic (“PD”) marker to describe the effect of apraglutide. Similar to the pharmacokinetic (“PK”) model development, the PK/PD model was developed for the healthy individuals from studies GLY-101-2015 and TA799-002 only. For development of the PD model, the PD observations were fitted together with the PK observations using the final PK model with its structure, residual error-, covariates- and random effects-models. The starting model was a turnover model where plasma citrulline was constantly synthesized and degraded with the synthesis rate ksyn and the degradation rate kdeg. Plasma apraglutide stimulated citrulline synthesis via a sigmoid Emax relationship with the baseline citrulline level R0, the half-maximal effect at the concentration EC50, the maximal effect Emax, and a Hill coefficient gamma. It was assumed that citrulline turnover was in steady state such that citrulline synthesis was determined solely by citrulline baseline and degradation. The population PK/PD of plasma apraglutide was established with data from two studies in healthy volunteers and two studies with SBS patients that tested doses between 2.5 and 50 mg SC.
(§2) The population PK/PD model was used to predict plasma apraglutide exposure and plasma citrulline trough concentration-time profiles with and without inter-individual variability for individuals with body weights between 40 and 120 kg receiving weekly doses of 2.5, 5, or 10 mg SC. […] Apraglutide exposure for body weights between 40 and 120 kg and apraglutide SC doses of 2.5, 5, or 10 mg was compared to post-hoc exposure estimates of SBS patients. Bracketing at a body weight of 50 kg between doses of 2.5 and 5 mg was simulated.
(§3) Plasma citrulline was described by a turnover model and maximal PD effect model.

[3] = Population PK/PD model of plasma apraglutide and plasma citrulline (healthy volunteers and SBS patients)
Text: as §1, §2, §3

**Q.** What does the source list for `CCCC[C@H](NC(=O)[C@H](CCC(=O)O)NC(=O)[C@H](CC(=O)O)NC(=O)[C@H](CO)NC(=O)[C@H](Cc1ccccc1)NC(=O)[C@H](CO)NC(=O)CNC(=O)[C@H](CC(=O)O)NC(=O)CNC(=O)[C@@H](N)Cc1c[nH]cn1)C(=O)N[C@H](Cc1ccccc1)C(=O)N[C@H](C(=O)N[C@H](C(=O)N[C@@H](CC(C)C)C(=O)N[C@@H](CC(=O)O)C(=O)N[C@@H](CC(C)C)C(=O)N[C@@H](CC(C)C)C(=O)N[C@@H](C)C(=O)N[C@@H](C)C(=O)N[C@@H](CCCNC(=N)N)C(=O)N[C@@H](CC(=O)O)C(=O)N[C@@H](Cc1ccccc1)C(=O)N[C@H](C(=O)N[C@@H](CC(N)=O)C(=O)N[C@@H](Cc1c[nH]c2ccccc12)C(=O)N[C@@H](CC(C)C)C(=O)N[C@H](C(=O)N[C@@H](CCC(N)=O)C(=O)N[C@H](C(=O)N[C@@H](CCCCN)C(=O)N[C@H](C(=O)N[C@H](C(=O)N[C@@H](CC(=O)O)C(N)=O)C(C)O)C(C)CC)C(C)O)C(C)CC)C(C)CC)C(C)CC)C(C)O` (stereo partly drawn) [apraglutide, L-histidyl-glycyl-L-aspartyl-glycyl-L-seryl-L-phenylalanyl-L-seryl-L-aspartyl-L-glutamyl-L-norleucyl-D-phenylalanyl-L-threonyl-Lisoleucyl-L-leucyl-L-aspartyl-L-leucyl-L-leucyl-L-alanyl-L-alanyl-L-arginyl-L-aspartyl-L-phenylalanyl-L-isoleucyl-L-asparaginyl-Ltryptophanyl-L-leucyl-L-isoleucyl-L-glutaminyl-L-threonyl-L-lysyl-L-isoleucyl-L-threonyl-Laspartic acid amide] (H-HGDGSFSDE[Nle][dF][Thr(3ξ)][Ile(3ξ)]LDLLAARDF[Ile(3ξ)]NWL[Ile(3ξ)]Q[Thr(3ξ)]K[Ile(3ξ)][Thr(3ξ)]D-NH2)?
**A.** Patients who developed anti-apraglutide antibodies ([1]; during the trial): Three; Patients positive for anti-apraglutide antibodies ([1]; end of 5 mg treatment period): Two; Patients positive for anti-apraglutide antibodies ([1]; end of 10 mg treatment period): one; Effects of anti-apraglutide antibodies on PK profile, pharmacodynamic response, adverse events ([1]; in vivo): No effects of anti-apraglutide antibodies were detected; Time of peak plasma concentration (Cmax), population PK/PD model estimate [2]: 1.39 days; Body weight coefficient on clearance βC1/F/B,W [3]: 1.8; Dose at which citrulline saturation appears [3]: 5 mg; Dose coefficient on zero-order absorption duration βTk0,Dose [3]: 0.249; Half-life, population PK estimate [3]: 31.2 h; Maximal effect (Emax) on citrulline synthesis [3]: 0.626; Central volume of distribution, population PK estimate ([3]; 70-kg individual, 5 mg SC): 31.5 L; Clearance, population PK estimate ([3]; 70-kg individual, 5 mg SC): 16.8 L/day; Volume of distribution, population PK/PD model estimate ([3]; 70-kg individual, 5 mg SC): 31.3 L; Half-maximal effective apraglutide concentration (EC50) on plasma citrulline ([3]; plasma concentration, Emax turnover model): 0.0137 µg/mL
